Assay results as given in ChEMBL document CHEMBL6074683, “Design, synthesis and investigation of biological activity and mechanism of fluoroaryl-substituted derivatives at the FL118 position 7” (Eur J Med Chem, 2025).
Calls of active or inactive are those of the source. The calls are words filed in the database; no cut-off is given here.

Tests used:
HepG2 = experiment: Cytotoxicity against human HepG2 cells incubated for 72 hrs by MTT assay; type: functional, cell-based; conditions: HepG2, 72 h
A549 = experiment: Cytotoxicity against human A549 cells incubated for 72 hrs by MTT assay; type: functional, cell-based; conditions: A549, 72 h
HeLa = experiment: Cytotoxicity against human HeLa cells incubated for 72 hrs by MTT assay; type: functional, cell-based
HCT-116 [1] = experiment: Cytotoxicity against human HCT-116 cells incubated for 72 hrs by MTT assay; type: functional, cell-based; conditions: HCT-116, 72 h
HCT-116 [2] = experiment: Downregulation of DDX5 protein expression in human HCT-116 cells at 100 nM incubated upto 72 hrs by Western blotting assay; type: functional, cell-based
PDX27454 = experiment: Antitumor activity against human PDX27454 cells xenografted in SCID mouse at 2 to 15 mg/kg, ip administered weekly for 4 weeks; type: functional, organism-based; conditions: dose 2-15 mg/kg
[3] = Toxicity in SCID mouse assessed as change in body weight at 2 to 15 mg/kg, ip administered weekly for 4 weeks; type: organism-based; conditions: in vivo, 672 h, dose 2-15 mg/kg
[4] = Apparent permeability across apical to basolateral side in human Caco-2 cells measured upto 120 mins by LC-MS/MS method; type: ADME, cell-based
[5] = Efflux ratio of apparent permeability across basolateral to apical over apical to basolateral side in human Caco-2 cells; type: ADME, cell-based

CC[C@@]1(O)C(=O)OCc2c1cc1n(c2=O)Cc2c-1nc1cc3c(cc1c2-c1ccc(OC)c(F)c1)OCO3
IC50 (HepG2): 172 nM
IC50 (A549): 70.2 nM
IC50 (HeLa): 24.3 nM
IC50 (HCT-116 [1]): 43.2 nM

CCc1c2c(nc3ccc(O)cc13)-c1cc3c(c(=O)n1C2)COC(=O)[C@]3(O)CC [7-ETHYL-10-HYDROXYCAMPTOTHECIN]
IC50 (HepG2): 268 nM
IC50 (A549): 475 nM
IC50 (HeLa): 234 nM
IC50 (HCT-116 [1]): 367 nM
Activity (HCT-116 [2]): inactive

CC[C@@]1(O)C(=O)OCc2c1cc1n(c2=O)Cc2c-1nc1cc3c(cc1c2-c1cccc(C(F)(F)F)c1)OCO3
IC50 (HepG2): 35 nM
IC50 (A549): 82.9 nM
IC50 (HeLa): 20.2 nM
IC50 (HCT-116 [1]): 73.6 nM

CC[C@@]1(O)C(=O)OCc2c1cc1n(c2=O)Cc2c-1nc1cc3c(cc1c2-c1cc(F)cc(F)c1)OCO3
IC50 (HepG2): 41.4 nM
IC50 (A549): 49.5 nM
IC50 (HeLa): 35.6 nM
IC50 (HCT-116 [1]): 48 nM
Activity (PDX27454): Active
Activity [3]: Non-toxic

CC[C@@]1(O)C(=O)OCc2c1cc1n(c2=O)Cc2c-1nc1cc3c(cc1c2-c1cc(F)cc(OC)c1)OCO3
IC50 (HepG2): 48.5 nM
IC50 (A549): 15.5 nM
IC50 (HeLa): 124 nM
IC50 (HCT-116 [1]): 66.9 nM

CC[C@@]1(O)C(=O)OCc2c1cc1n(c2=O)Cc2c-1nc1cc3c(cc1c2-c1ccc(OC(F)(F)F)cc1)OCO3
IC50 (HepG2): 229 nM
IC50 (A549): 87.3 nM
IC50 (HeLa): 398 nM
IC50 (HCT-116 [1]): 196 nM

CC[C@@]1(O)C(=O)OCc2c1cc1n(c2=O)Cc2cc3cc4c(cc3nc2-1)OCO4
IC50 (HepG2): 68.5 nM
IC50 (A549): 81.8 nM
IC50 (HeLa): 34.7 nM
IC50 (HCT-116 [1]): 66.5 nM
Papp A→B at 2 h [4]: 6.97 ×10⁻⁶ cm/s
efflux ratio [5]: 1.2

CC[C@@]1(O)C(=O)OCc2c1cc1n(c2=O)Cc2c-1nc1cc3c(cc1c2-c1cccc(F)c1)OCO3
IC50 (HepG2): 155 nM
IC50 (A549): 40 nM
IC50 (HeLa): 34.7 nM
IC50 (HCT-116 [1]): 150 nM
